Tests used:
[1] = test system: velvetleaf (Abutilon theophrasti); test: Preemergence herbicidal activity; format: in vivo; conditions: Abutilon theophrasti, 504 h, Table 6 (headed Post-emergent; text: preemergence), after 3 weeks, read-out: % Control ABUTH; for pest or weed control at 280 ppm: rate 280 ppm; for pest or weed control at 560 ppm: rate 560 ppm
Summary of the method: (§1)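 Percent injury or lack of germination was judged by eye against untreated pots at 3 weeks, where 100 means complete kill. Before emergence, seeded 70:30 loam-sand soil received a surface spray of compound in water with 0.1% Tween 155 (acetone/DMSO carrier); greenhouse 15 h photoperiod, about 22-29° C.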

[2] = test system: morningglory (Ipomoea hederacea); test: Preemergence herbicidal activity; format: in vivo; conditions: Ipomoea, 504 h, Table 6 (headed Post-emergent; text: preemergence), after 3 weeks, read-out: % Control IPOHE; for pest or weed control at 280 ppm: rate 280 ppm; for pest or weed control at 560 ppm: rate 560 ppm
Summary of the method: as §1

[3] = test system: pigweed (Amaranthus retroflexus); test: Preemergence herbicidal activity; format: in vivo; conditions: Amaranthus retroflexus, 504 h, Table 6 (headed Post-emergent; text: preemergence), after 3 weeks, read-out: % Control AMARE; for pest or weed control at 280 ppm: rate 280 ppm; for pest or weed control at 560 ppm: rate 560 ppm
Summary of the method: as §1

[4] = test system: wild buckwheat (Polygonum convolvulus); test: Postemergence herbicidal activity; format: in vivo; conditions: for pest or weed control at 125 ppm / pest or weed control at 250 ppm: Fallopia convolvulus, post-emergence, 336 h, Table 1, visual, after 2 weeks, read-out: Post-emergent % Control POLCO; for pest or weed control at 125 ppm: rate 125 ppm; for Post-emergent Evaluation - % control POLCO: Table 5
Summary of the method: (§2)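 Foliar spray at 1st–2nd true leaf; 1 ppm ≈ 1 g/Ha. Carrier: acetone/water/IPA/DMSO plus crop oil concentrate and Triton X-155. Greenhouse, sub-irrigated. Visual rating vs untreated at 2 wk, 0 = no injury, 100 = complete kill.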

[5] = test system: chickweed (Stellaria media); test: Postemergence herbicidal activity; format: in vivo; conditions: for pest or weed control at 125 ppm / pest or weed control at 250 ppm: Stellaria media, post-emergence, 336 h, Table 1, visual, after 2 weeks, read-out: Post-emergent % Control STEME; for pest or weed control at 125 ppm: rate 125 ppm; for Post-emergent Evaluation - % control STEME: Table 5
Summary of the method: as §2

[6] = test system: cocklebur (Xanthium strumarium); test: Postemergence herbicidal activity; format: in vivo; conditions: Xanthium strumarium, post-emergence, 336 h, Table 1, visual, after 2 weeks, read-out: Post-emergent % Control XANST; for pest or weed control at 125 ppm: rate 125 ppm; for pest or weed control at 250 ppm: rate 250 ppm
Summary of the method: as §2

[7] = test system: White Clover (Trifolium repens); test: Range & Pasture Crop Testing (postemergence track sprayer); format: in vivo; conditions: Table 10
Description: (§3) By applying the well-accepted probit analysis as described by J. Berkson in Journal of the […], 48, 565 (1953) and by D. Finney in “Probit Analysis” Cambridge University Press (1952), the above data can be used to calculate GR50 and GR80 values, which are defined as growth reduction factors that correspond to the effective dose of herbicide required to kill or control 50 percent or 80 percent, respectively, of a target plant.
(§4) Rates are calculated based upon 5 doses being applied. The high rate (X), followed by serial dilutions of 1/2×, 1/4×, 1/8× and 1/16×. Compound requirements are based upon the 187 L/ha carrier volume, specifications of the delivery system (Mandel track sprayer) and generating 24 mL of technical spray material to allow for the dilutions and overage in the sprayer. [formula]
(§5) All technical materials were formulated in 97:3 (acetone:DMSO) with 0.25% X-77. The total volume of solvent is maintained at less than 7%. An overhead Mandel track sprayer calibrated to deliver 187 L/ha was used for all treatment applications (postemergence). Picloram was included as a comparison treatment.
(§6) Solutions were applied with a mechanized track-sprayer at the following settings:
(§7) Spray height: 17 inches above top of plants
(§8) This provides an application volume of 187 L/ha.
(§9) Percent weed control (burn down) was evaluated 3 weeks after treatment. Visual control on a 0-100 linear scale was used, with 0 representing no control and 100 representing total control. Burn down ratings were taken for annual and perennial weed species.

[8] = test system: Canada thistle (Cirsium arvense); test: as above; format: in vivo; conditions: for GR80 CIRAR: Table 10, clover pasture, postemergence
Description: as §3, §4, §5, §6, §7, §8, §9

[9] = test system: field bindweed (Convolvulus arvensis); test: as above; format: in vivo; conditions: Table 10; clover pasture; postemergence
Description: as §3, §4, §5, §6, §7, §8, §9

[10] = test system: broadleaf dock (Rumex obtusifolia); test: as above; format: in vivo; conditions: Table 9; rate 70 g/Ha; 3 weeks after treatment
Description: as §4, §5, §6, §7, §8, §9

[11] = test system: crested wheatgrass (Agropyron cristatum) (grass crop); test: as above; format: in vivo; conditions: Table 9, rate 70 g/Ha, 3 weeks after treatment
Description: as §4, §5, §6, §7, §8, §9

[12] = test system: lambsquarters (Chenopodium album); test: Postemergence herbicidal activity; format: in vivo; conditions: Table 5
Summary of the method: as §2

[13] = test system: wheat (Triticum aestivum); test: Postemergence herbicidal activity, selectivity to wheat; format: in vivo; conditions: Table 5, crop (wheat)
Description: Seeds of the desired test plant species were planted in Grace-Sierra MetroMix® 306 planting mixture, which typically has a pH of 6.0 to 6.8 and an organic matter content of about 30 percent, in plastic pots with a surface area of 64 square centimeters. When required to ensure good germination and healthy plants, a fungicide treatment and/or other chemical or physical treatment was applied. The plants were grown for 7-21 days in a greenhouse with an approximate 15 hr photoperiod which was maintained at about 23-29° C. during the day and 22-28° C. during the night. Nutrients and water were added on a regular basis and supplemental lighting was provided with overhead metal halide 1000-Watt lamps as necessary. The plants were employed for testing when they reached the first or second true leaf stage.
A weighed amount, determined by the highest rate to be tested, of each test compound was placed in a 20 mL glass vial and was dissolved in 4 mL of a 97:3 v/v (volume/volume) mixture of acetone and dimethyl sulfoxide (DMSO) to obtain concentrated stock solutions. […] The concentrated stock solutions obtained were diluted with an aqueous mixture containing acetone, water, isopropyl alcohol, DMSO, Atplus 411F crop oil concentrate, and Triton X-155 surfactant in a 48.5:39:10:1.5:1.0:0.02 v/v ratio to obtain spray solutions of known concentration. The solutions containing the highest concentration to be tested were prepared by diluting 2 mL aliquots of the stock solution with 13 mL of the mixture and lower concentrations were prepared by serial dilution of the stock solution. Approximately 1.5 mL aliquots of each solution of known concentration were sprayed evenly onto each of the test plant pots using a DeVilbiss atomizer driven by compressed air pressure of 2 to 4 psi ([…]) to obtain thorough coverage of each plant. Control plants were sprayed in the same manner with the aqueous mixture. In this test an application rate of 1 ppm results in the application of approximately 1 g/Ha.
The treated plants and control plants were placed in a greenhouse as described above and watered by sub-irrigation to prevent wash-off of the test compounds. After 2 weeks the condition of the test plants as compared with that of the untreated plants was determined visually and scored on a scale of 0 to 100 percent where 0 corresponds to no injury and 100 corresponds to complete kill.

CCCOC(=O)c1nc(Cl)cc(N)c1Cl [Compound 5, n-propyl 4-amino-3,6-dichloropyridine-2-carboxylate]
melting point: 94 to 95 °C
pest or weed control at 280 ppm [1]: 100%
pest or weed control at 280 ppm [2]: 100%
pest or weed control at 280 ppm [3]: 100%
pest or weed control at 125 ppm [4]: 100%
pest or weed control at 125 ppm [5]: 100%
pest or weed control at 125 ppm [6]: 100%
GR20 TRFRE [7]: <17.5 g/ha
GR80 CIRAR [8]: <17.5 g/ha
GR80 CONAR [9]: 140.1 g/ha

CCCCOC(=O)c1nc(Cl)cc(N)c1Cl [Compound 7, n-butyl 4-amino-3,6-dichloropyridine-2-carboxylate]
melting point: 78 to 79 °C
pest or weed control at 280 ppm [1]: 100%
pest or weed control at 280 ppm [2]: 100%
pest or weed control at 280 ppm [3]: 100%
pest or weed control at 250 ppm ([4]; rate 250 ppm): 100%
pest or weed control at 250 ppm ([5]; rate 250 ppm): 100%
pest or weed control at 250 ppm [6]: 100%
GR20 TRFRE [7]: 15.3 g/ha
GR80 CIRAR [8]: 17.3 g/ha
GR80 CONAR [9]: 116.6 g/ha

CCCCCCOC(=O)c1nc(Cl)cc(N)c1Cl [Compound 9, n-hexyl 4-amino-3,6-dichloropyridine-2-carboxylate]
melting point: 65 to 66 °C
pest or weed control at 280 ppm [1]: 100%
pest or weed control at 280 ppm [2]: 100%
pest or weed control at 280 ppm [3]: 98%
pest or weed control at 250 ppm ([4]; rate 250 ppm): 100%
pest or weed control at 250 ppm ([5]; rate 250 ppm): 100%
pest or weed control at 250 ppm [6]: 100%
GR20 TRFRE [7]: 20.7 g/ha
GR80 CIRAR [8]: 20.7 g/ha
GR80 CONAR [9]: 66 g/ha

CNc1cc(Cl)nc(C(=O)O)c1Cl [Compound 26, 4-N-Methylamino-3,6-dichloropyridine-2-carboxylic acid]
melting point: 170 to 172 °C
pest or weed control at 560 ppm [1]: 100%
pest or weed control at 560 ppm [2]: 100%
pest or weed control at 560 ppm [3]: 100%
pest or weed control at 125 ppm [4]: 95%
pest or weed control at 125 ppm [5]: 90%
pest or weed control at 125 ppm [6]: 90%
Post-emergent Evaluation - % control CIRAR ([8]; Table 9, rate 70 g/Ha, 3 weeks after treatment): 90%
Post-emergent Evaluation - % control RUMOB [10]: 100%
Post-emergent Evaluation - % control AGRCR [11]: 10%

COc1c(N)cc(Br)nc1C(=O)O [Compound 41, 4-Amino-6-bromo-3-methoxypyridine-2-carboxylic acid]
pest or weed control at 280 ppm [1]: 90%
pest or weed control at 280 ppm [2]: 85%
pest or weed control at 280 ppm [3]: 40%
Post-emergent Evaluation - % control CHEAL ([12]; rate 250 ppm): 90%
pest or weed control at 125 ppm [4]: 100%
Post-emergent Evaluation - % control POLCO ([4]; rate 250 ppm): 100%
pest or weed control at 125 ppm [5]: 90%
Post-emergent Evaluation - % control STEME ([5]; rate 250 ppm): 20%
pest or weed control at 125 ppm [6]: 80%
Post-emergent Evaluation - % control TRZAS ([13]; rate 250 ppm): 10%

Nc1cc(C(F)(F)F)nc(C(=O)O)c1Cl [Compound 46, 4-Amino-3-chloro-6-trifluoromethylpyridine-2-carboxylic acid]
melting point: 131 to 133 °C
pest or weed control at 140 ppm ([1]; rate 140 ppm): 95%
pest or weed control at 140 ppm ([2]; rate 140 ppm): 100%
pest or weed control at 140 ppm ([3]; rate 140 ppm): 95%
Post-emergent Evaluation - % control CHEAL ([12]; rate 31 ppm): 100%
pest or weed control at 250 ppm ([4]; rate 250 ppm): 100%
Post-emergent Evaluation - % control POLCO ([4]; rate 31 ppm): 100%
pest or weed control at 250 ppm ([5]; rate 250 ppm): 60%
Post-emergent Evaluation - % control STEME ([5]; rate 31 ppm): 50%
pest or weed control at 250 ppm [6]: 90%
Post-emergent Evaluation - % control TRZAS ([13]; rate 31 ppm): 10%

Nc1c(Cl)c(Oc2ccccc2)nc(C(=O)O)c1Cl [Compound 54, 4-Amino-3,5-dichloro-6-phenoxypyridine-2-carboxylic acid]
melting point: 158 to 160 °C
pest or weed control at 280 ppm [1]: 50%
pest or weed control at 280 ppm [2]: 41%
pest or weed control at 280 ppm [3]: 10%
pest or weed control at 250 ppm ([4]; rate 250 ppm): 40%
pest or weed control at 250 ppm ([5]; rate 250 ppm): 0%
pest or weed control at 250 ppm [6]: 100%

CC(C)COc1nc(C(=O)O)c(Cl)c(N)c1Cl [Compound 56, 4-Amino-3,5-dichloro-6-(2-methylpropoxy)pyridine-2-carboxylic acid]
melting point: 104 to 106 °C
pest or weed control at 560 ppm [1]: 40%
pest or weed control at 560 ppm [2]: 0%
pest or weed control at 560 ppm [3]: 0%
pest or weed control at 250 ppm ([4]; rate 250 ppm): 20%
pest or weed control at 250 ppm ([5]; rate 250 ppm): 30%
pest or weed control at 250 ppm [6]: 85%

Reference: patent US20010047099A1, “4-aminopicolinates and their use as herbicides” (priority 2000, published 2001)
